Measured values reported in patent US8748458B2, “Scriptaid isosteres and their use in therapy” (Karus Therapeutics Limited, priority 2009, dated 2014).

How the values were obtained:
MCF7 Breast Tumour Cell = MCF7 Breast Tumour Cell Proliferation Inhibition; format: cell-based; details: Homo sapiens; MCF7 cells
HDAC6 = HDAC6 (Homo sapiens (Human), UniProt Q9UBN7); test: HDAC6 inhibition; format: biochemical
HDAC9 = HDAC9 (Homo sapiens (Human), UniProt Q9UKV0); test: HDAC9 inhibition; format: biochemical
HDAC2 = HDAC2 (Homo sapiens (Human), UniProt Q92769); test: HDAC2 inhibition; format: biochemical
HDAC1 = HDAC1 (Homo sapiens (Human), UniProt Q13547); test: HDAC1 inhibition; format: biochemical
[1] = test system: Total HDAC (HeLa Nuclear Extracts); test: Total HDAC inhibition (HeLa nuclear extracts); format: biochemical
HDAC3 = HDAC3 (Homo sapiens (Human), UniProt O15379); test: HDAC3 inhibition; format: biochemical
TNFα = TNFα inhibition (LPS-stimulated human PBMCs); format: cell-based; details: PBMC
HDAC4 = HDAC4 (Homo sapiens (Human), UniProt P56524); test: HDAC4 inhibition; format: biochemical
HDAC10 = HDAC10 (Homo sapiens (Human), UniProt Q969S8); test: HDAC10 inhibition; format: biochemical
HDAC5 = HDAC5 (Homo sapiens (Human), UniProt Q9UQL6); test: HDAC5 inhibition; format: biochemical
HDAC11 = HDAC11 (Homo sapiens (Human), UniProt Q96DB2); test: HDAC11 inhibition; format: biochemical
HDAC8 = HDAC8 (Homo sapiens (Human), UniProt Q9BY41); test: HDAC8 inhibition; format: biochemical

Sequence of HDAC2 (Q92769 whole entry, species assumed): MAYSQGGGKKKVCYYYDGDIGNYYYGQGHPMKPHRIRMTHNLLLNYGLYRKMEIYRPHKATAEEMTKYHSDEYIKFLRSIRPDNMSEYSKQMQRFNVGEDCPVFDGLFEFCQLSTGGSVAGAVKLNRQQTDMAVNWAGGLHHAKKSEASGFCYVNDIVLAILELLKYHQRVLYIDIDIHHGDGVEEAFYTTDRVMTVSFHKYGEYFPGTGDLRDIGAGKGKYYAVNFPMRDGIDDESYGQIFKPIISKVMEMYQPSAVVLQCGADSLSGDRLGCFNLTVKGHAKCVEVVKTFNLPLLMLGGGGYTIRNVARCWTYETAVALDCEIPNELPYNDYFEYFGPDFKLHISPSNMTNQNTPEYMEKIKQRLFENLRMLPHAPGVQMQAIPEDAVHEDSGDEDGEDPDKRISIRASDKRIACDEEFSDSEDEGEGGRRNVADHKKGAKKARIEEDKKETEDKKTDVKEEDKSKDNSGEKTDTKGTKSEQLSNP
Sequence of HDAC9 (Q9UKV0 whole entry, species assumed): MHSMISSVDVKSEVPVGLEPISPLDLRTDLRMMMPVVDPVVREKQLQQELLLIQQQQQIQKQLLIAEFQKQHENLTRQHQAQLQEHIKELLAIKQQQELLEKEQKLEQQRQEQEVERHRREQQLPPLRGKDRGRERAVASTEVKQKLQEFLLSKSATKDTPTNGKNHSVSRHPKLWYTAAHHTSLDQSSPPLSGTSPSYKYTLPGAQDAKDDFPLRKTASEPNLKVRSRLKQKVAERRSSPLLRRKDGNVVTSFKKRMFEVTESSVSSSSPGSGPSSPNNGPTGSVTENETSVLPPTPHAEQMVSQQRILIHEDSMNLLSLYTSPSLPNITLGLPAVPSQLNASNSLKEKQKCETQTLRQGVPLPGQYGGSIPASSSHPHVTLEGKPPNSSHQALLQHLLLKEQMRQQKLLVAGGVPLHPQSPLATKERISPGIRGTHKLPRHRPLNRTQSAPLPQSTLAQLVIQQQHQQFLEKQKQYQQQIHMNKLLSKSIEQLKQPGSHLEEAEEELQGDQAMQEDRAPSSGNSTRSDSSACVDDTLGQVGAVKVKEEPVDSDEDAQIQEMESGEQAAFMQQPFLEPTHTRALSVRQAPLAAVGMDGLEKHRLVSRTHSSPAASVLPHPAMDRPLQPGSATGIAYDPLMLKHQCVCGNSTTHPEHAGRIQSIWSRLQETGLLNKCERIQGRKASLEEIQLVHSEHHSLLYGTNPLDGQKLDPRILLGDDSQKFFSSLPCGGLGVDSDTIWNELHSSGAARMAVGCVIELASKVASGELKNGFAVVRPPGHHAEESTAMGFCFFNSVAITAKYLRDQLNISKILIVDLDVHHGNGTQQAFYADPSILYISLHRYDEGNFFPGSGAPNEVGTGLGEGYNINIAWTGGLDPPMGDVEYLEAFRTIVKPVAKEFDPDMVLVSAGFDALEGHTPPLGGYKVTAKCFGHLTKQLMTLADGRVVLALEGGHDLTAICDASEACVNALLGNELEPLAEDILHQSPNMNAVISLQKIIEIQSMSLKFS
Sequence of HDAC6 (Q9UBN7 whole entry, species assumed): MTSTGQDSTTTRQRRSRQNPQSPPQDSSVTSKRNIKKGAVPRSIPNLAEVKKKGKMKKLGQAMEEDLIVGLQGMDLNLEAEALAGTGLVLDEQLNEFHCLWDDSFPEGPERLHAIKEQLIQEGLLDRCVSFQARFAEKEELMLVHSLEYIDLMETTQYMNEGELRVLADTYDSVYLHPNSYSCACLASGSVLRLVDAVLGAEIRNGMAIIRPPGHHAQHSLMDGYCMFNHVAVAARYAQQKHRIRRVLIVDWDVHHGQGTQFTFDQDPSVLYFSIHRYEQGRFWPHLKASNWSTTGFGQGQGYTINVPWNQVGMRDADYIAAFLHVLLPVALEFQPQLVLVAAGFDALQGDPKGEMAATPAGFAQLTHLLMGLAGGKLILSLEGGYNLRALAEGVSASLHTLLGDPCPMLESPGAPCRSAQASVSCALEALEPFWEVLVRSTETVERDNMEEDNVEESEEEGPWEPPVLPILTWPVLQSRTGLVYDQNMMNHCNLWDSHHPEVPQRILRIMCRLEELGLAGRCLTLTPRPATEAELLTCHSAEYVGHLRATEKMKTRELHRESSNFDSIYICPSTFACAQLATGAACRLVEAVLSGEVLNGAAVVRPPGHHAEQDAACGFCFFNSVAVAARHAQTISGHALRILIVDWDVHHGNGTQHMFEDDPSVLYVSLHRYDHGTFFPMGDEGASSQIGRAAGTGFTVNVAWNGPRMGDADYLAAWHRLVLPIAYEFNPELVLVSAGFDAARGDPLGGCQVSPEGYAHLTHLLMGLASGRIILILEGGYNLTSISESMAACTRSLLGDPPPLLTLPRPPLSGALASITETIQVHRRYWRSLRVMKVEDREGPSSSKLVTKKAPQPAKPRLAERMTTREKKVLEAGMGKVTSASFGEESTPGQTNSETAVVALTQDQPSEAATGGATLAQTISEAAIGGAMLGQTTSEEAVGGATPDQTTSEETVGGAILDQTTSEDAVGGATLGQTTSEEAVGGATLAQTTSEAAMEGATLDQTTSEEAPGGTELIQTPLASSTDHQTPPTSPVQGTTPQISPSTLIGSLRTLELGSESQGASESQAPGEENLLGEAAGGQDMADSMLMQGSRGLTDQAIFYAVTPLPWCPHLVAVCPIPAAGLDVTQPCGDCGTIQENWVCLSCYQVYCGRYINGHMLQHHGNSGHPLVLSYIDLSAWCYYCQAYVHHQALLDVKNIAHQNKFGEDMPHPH
Sequence of HDAC1 (Q13547 whole entry, species assumed): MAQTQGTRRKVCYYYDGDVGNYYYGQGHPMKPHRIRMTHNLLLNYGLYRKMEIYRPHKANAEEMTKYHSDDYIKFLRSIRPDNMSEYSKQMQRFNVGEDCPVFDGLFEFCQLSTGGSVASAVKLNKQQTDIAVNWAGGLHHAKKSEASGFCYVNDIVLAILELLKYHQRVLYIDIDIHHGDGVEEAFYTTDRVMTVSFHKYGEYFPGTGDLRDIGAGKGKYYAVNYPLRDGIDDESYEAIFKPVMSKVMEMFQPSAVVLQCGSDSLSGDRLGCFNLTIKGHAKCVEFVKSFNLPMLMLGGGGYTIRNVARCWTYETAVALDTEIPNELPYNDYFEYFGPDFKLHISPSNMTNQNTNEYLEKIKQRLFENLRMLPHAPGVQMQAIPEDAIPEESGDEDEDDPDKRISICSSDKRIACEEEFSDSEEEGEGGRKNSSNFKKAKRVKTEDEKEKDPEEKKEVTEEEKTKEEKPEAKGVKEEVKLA
Sequence of HDAC3 (O15379 whole entry, species assumed): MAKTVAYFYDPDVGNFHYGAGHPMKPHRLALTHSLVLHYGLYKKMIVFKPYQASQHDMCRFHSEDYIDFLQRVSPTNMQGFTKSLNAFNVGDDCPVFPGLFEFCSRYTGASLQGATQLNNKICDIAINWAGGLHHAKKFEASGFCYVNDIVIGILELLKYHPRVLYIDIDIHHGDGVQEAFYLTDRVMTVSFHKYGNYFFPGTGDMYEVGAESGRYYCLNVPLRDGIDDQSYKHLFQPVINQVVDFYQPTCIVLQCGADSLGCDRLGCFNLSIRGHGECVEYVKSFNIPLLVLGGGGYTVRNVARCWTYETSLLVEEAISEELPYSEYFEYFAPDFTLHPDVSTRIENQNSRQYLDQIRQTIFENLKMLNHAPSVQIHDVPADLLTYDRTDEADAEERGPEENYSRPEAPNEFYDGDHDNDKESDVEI
Sequence of HDAC3 (Q9Y618 395-489 partner, species assumed): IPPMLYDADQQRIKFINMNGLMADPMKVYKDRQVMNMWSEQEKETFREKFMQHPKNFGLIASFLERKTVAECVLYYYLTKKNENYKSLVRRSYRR
Sequence of HDAC4 (P56524 whole entry, species assumed): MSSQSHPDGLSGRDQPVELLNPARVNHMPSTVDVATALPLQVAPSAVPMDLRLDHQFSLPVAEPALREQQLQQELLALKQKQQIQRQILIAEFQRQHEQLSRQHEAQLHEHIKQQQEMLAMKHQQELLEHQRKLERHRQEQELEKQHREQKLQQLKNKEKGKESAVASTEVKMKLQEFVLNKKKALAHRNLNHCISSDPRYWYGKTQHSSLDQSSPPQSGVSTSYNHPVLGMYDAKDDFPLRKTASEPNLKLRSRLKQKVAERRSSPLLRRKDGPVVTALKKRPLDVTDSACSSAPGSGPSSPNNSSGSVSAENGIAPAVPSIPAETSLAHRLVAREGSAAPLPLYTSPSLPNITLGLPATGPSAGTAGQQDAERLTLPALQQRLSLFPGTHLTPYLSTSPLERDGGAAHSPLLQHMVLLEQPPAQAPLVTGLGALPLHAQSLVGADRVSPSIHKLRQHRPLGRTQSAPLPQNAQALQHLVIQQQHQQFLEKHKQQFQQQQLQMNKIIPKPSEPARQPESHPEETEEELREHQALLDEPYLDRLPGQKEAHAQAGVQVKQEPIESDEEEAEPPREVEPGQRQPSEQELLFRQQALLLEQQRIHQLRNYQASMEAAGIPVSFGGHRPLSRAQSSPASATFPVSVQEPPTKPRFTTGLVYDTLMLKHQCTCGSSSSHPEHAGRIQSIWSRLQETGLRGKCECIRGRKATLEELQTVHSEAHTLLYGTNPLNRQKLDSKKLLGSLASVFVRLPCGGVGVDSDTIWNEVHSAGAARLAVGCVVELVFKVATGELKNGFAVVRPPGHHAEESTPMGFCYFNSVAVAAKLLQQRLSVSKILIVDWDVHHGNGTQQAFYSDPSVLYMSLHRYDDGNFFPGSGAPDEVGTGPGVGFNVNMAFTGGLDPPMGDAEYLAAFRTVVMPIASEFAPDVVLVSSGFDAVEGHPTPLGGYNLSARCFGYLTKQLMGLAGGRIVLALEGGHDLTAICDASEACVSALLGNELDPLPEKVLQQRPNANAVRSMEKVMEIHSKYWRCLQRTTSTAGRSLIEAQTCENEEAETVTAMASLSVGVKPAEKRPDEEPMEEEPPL

IC50 (MCF7 Breast Tumour Cell) [nM] | IC50 (HDAC6) [nM] | IC50 (HDAC1) [nM] | IC50 [1] [nM] | SMILES | further results
411 | 3 | 151 | 1260 | O=C(CCCCCCN(c1ccccn1)c1cc(OCc2ccccc2)ccn1)NO [Example 15, 7-[(4-Benzyloxy-pyridin-2-yl)-pyridin-2-yl-amino]-heptanoic acid hydroxyamide] | IC50 (HDAC9): 423 nM; IC50 (HDAC2): 612 nM
200 |  |  |  | O=C(CCCCCCN(c1ccccn1)c1cc(-c2ccccc2F)ccn1)NO [Example 26, 7-{[4-(2-Fluoro-phenyl)-pyridin-2-yl]-pyridin-2-yl-amino}-heptanoic acid hydroxyamide] | 
2340 |  |  | 2490 | O=C(CCCCCN(c1ccccn1)c1ccccn1)NO [Example 2, 6-(Dipyridin-2-ylamino)-N-hydroxyhexanamide] | 
 |  |  | 539 | O=C(CCCCCCN(c1cccnc1)c1ccccn1)NO [Example 20, 7-(Pyridin-3-yl-pyridin-2-yl-amino)-heptanoic acid hydroxyamide] | 
357 |  |  | 521 | O=C(CCCCCCN(c1ccccn1)c1ccc(-c2ccc(F)cc2)cn1)NO [Example 13, 7-((5-(4-Fluorophenyl)pyridin-2-yl)(pyridin-2-yl)amino)-N-hydroxyheptanamide] | 
210 |  |  | 1080 | O=C(CCCCCCN(c1ccccn1)c1cc(-c2ccccc2Cl)ccn1)NO [Example 25, 7-{[4-(2-Chloro-phenyl)-pyridin-2-yl]-pyridin-2-yl-amino}-heptanoic acid hydroxyamide] | 
 | 9 |  | 245 | O=C(CCCCCCN(c1ccccn1)c1ccccn1)NO [Example 3, 7-(Dipyridin-2-ylamino)-N-hydroxyheptanamide] | IC50 (HDAC3): 710 nM; IC50 (HDAC2): 1540 nM; IC50 (TNFα): 100 nM; IC50 (HDAC4): 307 nM
1050 | 19 | 116 | 493 | O=C(CCCCCCN(c1ccccn1)c1cc(-c2ccccc2)ccn1)NO [Example 8, N-Hydroxy-7-((4-phenylpyridin-2-yl)(pyridin-2-yl)amino)heptanamide] | 
81 |  |  | 1680 | Cc1cccc(-c2ccnc(N(CCCCCCC(=O)NO)c3ccccn3)c2)c1 [Example 27, 7-[Pyridin-2-yl-(4-m-tolyl-pyridin-2-yl)-amino]-heptanoic acid hydroxyamide] | 
574 |  |  | 822 | CCCOc1ccnc(N(CCCCCCC(=O)NO)c2ccccn2)c1 [Example 18, 7-[(4-Propoxy-pyridin-2-yl)-pyridin-2-yl-amino]-heptanoic acid hydroxyamide] | 
 |  |  | 1080 | O=C(CCCCCCN(c1ccccn1)c1cc(-c2ccc(F)cc2)ccn1)NO [Example 21, 7-{[4-(4-Fluoro-phenyl)-pyridin-2-yl]-pyridin-2-yl-amino}-heptanoic acid hydroxyamide] | 
448 |  |  | 778 | Cc1ccnc(N(CCCCCCC(=O)NO)c2ccccn2)c1 [Example 7, N-Hydroxy-7-((4-methylpyridin-2-yl)(pyridin-2-yl)amino)heptanamide] | 
478 |  |  | 326 | CC(C)Oc1ccnc(N(CCCCCCC(=O)NO)c2ccccn2)c1 [Example 19, 7-[(4-Isopropoxy-pyridin-2-yl)-pyridin-2-yl-amino]heptanoic acid hydroxyamide] | 
 | 22 | 642 | 415 | O=C(CCCCCC=C(c1ccccn1)c1ccccn1)NO [Example 5, N-Hydroxy-8,8-di(pyridin-2-yl)oct-7-enamide] | 
1090 |  |  | 1080 | COc1ccnc(N(CCCCCCC(=O)NO)c2ccccn2)c1 [Example 16, 7-[(4-Methoxy-pyridin-2-yl)-pyridin-2-yl-amino]-heptanoic acid hydroxyamide] | 
456 |  |  | 598 | CCOc1ccnc(N(CCCCCCC(=O)NO)c2ccccn2)c1 [Example 17, 7-[(4-Ethoxy-pyridin-2-yl)-pyridin-2-yl-amino]-heptanoic acid hydroxyamide] | 
697 | 31 | 453 | 337 | Cc1ccc(N(CCCCCCC(=O)NO)c2ccccn2)nc1 [Example 9, N-Hydroxy-7-((5-methylpyridin-2-yl)(pyridin-2-yl)amino)heptanamide] | IC50 (HDAC9): 759 nM; IC50 (HDAC2): 1140 nM
77 |  |  | 1060 | Cc1ccc(-c2ccnc(N(CCCCCCC(=O)NO)c3ccccn3)c2)cc1 [Example 23, 7-[Pyridin-2-yl-(4-p-tolyl-pyridin-2-yl)-amino]-heptanoic acid hydroxyamide] | 
292 | 13 | 182 | 406 | COc1ccc(N(CCCCCCC(=O)NO)c2ccccn2)nc1 [Example 11, N-Hydroxy-7-((5-methoxypyridin-2-yl)(pyridin-2-yl)amino)heptanamide] | IC50 (HDAC9): 759 nM; IC50 (HDAC2): 883 nM
39 |  |  | 298 | Nc1ccc(-c2ccnc(N(CCCCCCC(=O)NO)c3ccccn3)c2)cc1 [Example 22, 7-{[4-(4-Amino-phenyl)-pyridin-2-yl]-pyridin-2-yl-amino}-heptanoic acid hydroxyamide] | 
81 |  |  | 310 | O=C(CCCCCCN(c1ccccn1)c1ccc(-c2ccccc2)cn1)NO [Example 12, N-Hydroxy-7-((5-phenylpyridin-2-yl)(pyridin-2-yl)amino)heptanamide] | 
600 | 68 | 158 | 950 | O=C(CCCCC=C(c1ccccn1)c1ccccn1)NO [Example 1, N-Hydroxy-7,7-di(pyridin-2-yl)hept-6-enamide] | 
 | 16 | 71 | 81 | O=C(CCCCCCN(c1ccccn1)c1ccc2ccccc2n1)NO [Example 4, N-Hydroxy-7-(pyridin-2-yl(quinolin-2-yl)amino)heptanamide] | IC50 (HDAC3): 62 nM; IC50 (HDAC9): 90 nM; IC50 (HDAC2): 212 nM; IC50 (HDAC10): 126 nM; IC50 (HDAC5): 123 nM; IC50 (HDAC11): 112 nM; IC50 (HDAC8): 312 nM; IC50 (HDAC4): 545 nM
285 | 57 | 182 | 1070 | O=C(CCCCCCN(c1ccccn1)c1ccc(OCc2ccccc2)cn1)NO [Example 10, 7-((5-(Benzyloxy)pyridin-2-yl)(pyridin-2-yl)amino)-N-hydroxyheptanamide] | 
200 |  |  | 1620 | Cc1ccccc1-c1ccnc(N(CCCCCCC(=O)NO)c2ccccn2)c1 [Example 24, 7-[Pyridin-2-yl-(4-o-tolyl-pyridin-2-yl)-amino]-heptanoic acid hydroxyamide] | 
169 | 2 | 64 | 337 | O=C(CCCCCCN(c1ccccn1)c1cc2ccccc2cn1)NO [Example 14, 7-(Isoquinolin-3-yl-pyridin-2-yl-amino)-heptanoic acid hydroxyamide] | IC50 (HDAC9): 145 nM; IC50 (HDAC2): 306 nM
445 |  |  |  | O=C(CCCCCCC(c1ccccn1)c1ccccn1)NO [Example 6] | 
